Measured values reported in patent US20240261288A1, “COMBINATION OF A 3-(IMIDAZOL-4-YL)-4-(AMINO)-BENZENES[…] INHIBITOR WITH AN EGFR INHIBITOR AND/OR MEK INHIBITOR FOR USE IN THE TREATMENT OF LUNG CANCER” (lkena Oncology, Inc., priority 2021, published 2024).

Tests used:
[1] = tested on: A2058 cells (BRAF mutant); experiment: Apoptosis induction, caspase-3/7 activation (Incucyte live-cell imaging); type: cell-based; details: T-A-32 in combination with trametinib, compared with either single agent treatment alone
Source text: (§1) This study determined the ability of T-A-32 to enhance apoptosis in combination with osimertinib and trametinib in epidermal growth factor receptor (EGFR) mutant cell lines, and in combination with trametinib in Kirsten rat sarcoma viral oncogene (KRAS) or v raf murine sarcoma viral oncogene homolog B (BRAF) mutant cancer cell lines.
(§2) Three EGFR mutant cell lines (HCC4006, HCC827, and NCI-H1975), 5 KRAS mutant cell lines (A549, HCT116, Capan-2, Calu-1, and LoVo), and 1 BRAF mutant cell line (A2058) from multiple cancer indications were tested. The EGFR mutant cell lines were treated with single agent T-A-32, osimertinib (an EGFR inhibitor), or trametinib (a mitogen-activated protein kinase kinase [MEK] inhibitor); a dual combination of osimertinib and trametinib; or a triple combination of T-A-32, osimertinib, and trametinib in a 96-well plate format. The KRAS and BRAF mutant cell lines were treated with single agent T-A-32 or trametinib, or a dual combination of T-A-32 and trametinib in a 96-well plate format. Apoptosis induction was assessed by monitoring the activation of caspase-3/7 using a probe that generates bright green fluorescence upon DEVD peptide cleavage by activated caspase-3/7 as an early indicator of apoptosis every 2 hours for approximately 96 hours.
(§3) All cell lines were cultured in the recommended medium supplemented with 10% fetal bovine serum (FBS) at 37° C. in a humidified atmosphere containing 5% CO2 until they were at least 80% confluent as follows: • HCC4006, HCC827, and NCI-H1975 cells in Roswell Park Memorial Institute 1640+10% FBS • A2058 cells in Dulbecco's Modified Eagle Medium+10% FBS • HCT-116, Capan-2, and Calu-1 cells in McCoy's 5A+10% FBS • LoVo and A549 cells in F 12K+10% FBS
(§4) Cells were trypsinized, counted by an automated cell counter, and added to all wells of a 96-well plate at 3000 cells/well in 100 μL of the appropriate medium (1 plate for each cell line). The next day, compounds were diluted in DMSO to 1000× concentration. CELLEVENT Caspase-3/7 Green READYPROBE Reagent was prepared as per manufacturer's instructions by adding 1 drop of READYPROBE reagent into 1 mL of the appropriate medium. Compounds were diluted in the READYPROBE/medium mixture to 3× concentration and 50 μL were added to the cells. The plates were subsequently scanned every 2 hours using an Incucyte S3 Live-Cell Analysis System (Sartorius) for a total of 72 to 136 hours depending on the cell line. Plates were maintained at 37° C. in a humidified atmosphere containing 5% CO2 over the course of experiment.

[2] = tested on: Calu 1 cells (KRAS mutant); experiment: as above; type: cell-based; details: T-A-32 in combination with trametinib, compared with either single agent treatment alone
Source text: as §1, §2, §3, §4

[3] = tested on: Capan 2 cells (KRAS mutant); experiment: as above; type: cell-based; details: T-A-32 in combination with trametinib, compared with either single agent treatment alone
Source text: as §1, §2, §3, §4

[4] = tested on: HCC4006 cells (EGFR mutant NSCLC); experiment: as above; type: cell-based; details: triple combination of T-A-32, osimertinib, and trametinib, compared with the 3 single agent treatments and the dual combination of osimertinib and trametinib
Source text: as §1, §2, §3, §4

[5] = tested on: HCC827 cells (EGFR mutant NSCLC); experiment: as above; type: cell-based; details: triple combination of T-A-32, osimertinib, and trametinib, compared with the 3 single agent treatments and the dual combination of osimertinib and trametinib
Source text: as §1, §2, §3, §4

A549 cells (KRAS mutant) = experiment: as above; type: cell-based, human; details: T-A-32 in combination with trametinib, compared with either single agent treatment alone
Source text: as §1, §2, §3, §4

[6] = tested on: HCT-116 cells (KRAS mutant); experiment: as above; type: cell-based, human; details: T-A-32 in combination with trametinib, compared with either single agent treatment alone
Source text: as §1, §2, §3, §4

LoVo cells (KRAS mutant) = experiment: as above; type: cell-based, human; details: T-A-32 in combination with trametinib, compared with either single agent treatment alone
Source text: as §1, §2, §3, §4

[7] = tested on: NCI-H1975 cells (EGFR mutant NSCLC); experiment: as above; type: cell-based, human; details: triple combination of T-A-32, osimertinib, and trametinib, compared with the 3 single agent treatments and the dual combination of osimertinib and trametinib
Source text: as §1, §2, §3, §4

[8] = tested on: H1975 human non-small cell lung xenografts; experiment: H1975 EGFR mutant lung cancer xenograft mouse model, tumor growth; type: in vivo, female Nu/Nu mice; details: for TGI (tumor growth inhibition): Day 18, vs vehicle control, p<0.001
Protocol: This study determined the in vivo antitumor activity of T-A-32 administered in combination with osimertinib, an EGFR inhibitor and trametinib, a MEK inhibitor. This combination was tested in immunodeficient nude mice (Nu/Nu) bearing H1975 human non-small cell lung xenografts. H1975 was chosen as a xenograft model because H1975 harbors EGFR T790M/[…]L858R mutations. T970M is well known point mutation for osimertinib resistance and L858R is also known EGFR activation mutation.
Six- to 9-week-old female Nu/Nu mice were inoculated SC with 2×10^6 H1975 human non-small cell lung tumor cells in the right flank. Tumor growth was monitored twice per week using vernier calipers and the mean tumor volume (MTV) was calculated. When the MTV reached approximately 177 mm^3, animals were randomized into treatment groups (n=10/group) and dosed orally (PO) with either vehicle control (5% DMSO+95% PEG 400 (Vehicle 1)+0.5% hydroxypropyl methyl cellulose and 0.2% Tween-80 (Vehicle 2)+1% Tween 80 (Vehicle 3)) or T-A-32 at 75 mg/kg, osimertinib at 2.5 mg/kg, or trametinib at 1 mg/kg QD for 18 days.
(§5) Treatments started on Day 0, tumor size and body weight were measured twice per week, and the study was terminated when the vehicle control tumors reached a mean of approximately 1600 mm^3. Percent TGI was calculated on Day 18 when the control MTV reached the maximum allowable tumor volume. The mean maximum body weight change was determined for each group.

[9] = tested on: HCT-116 human colorectal carcinoma xenografts; experiment: HCT116 KRAS G13D mutant colorectal carcinoma xenograft mouse model, tumor growth; type: in vivo, female Nu/Nu mice; details: T-A-32 PO 75 mg/kg QD in combination with trametinib 0.5 mg/kg; Day 14; vs vehicle control; p<0.0001
Protocol: (§6) This study determined the in vivo antitumor activity of T-A-32 administered in combination with trametinib, a MEK inhibitor. This combination was tested in immunodeficient nude mice (Nu/Nu) bearing HCT-116 human colorectal carcinoma xenografts. HCT116 was chosen as a xenograft model because HCT116 harbors a the KRAS G13D mutation.
(§7) Six- to eight-week-old female Nu/Nu mice were inoculated subcutaneously with 1×10^6 HCT116 human colorectal carcinoma tumor cells in the right flank. Tumor growth was monitored twice per week using vernier calipers and the mean tumor volume (MTV) was calculated. When the MTV reached approximately 150-200 mm^3, approximately ten (10) days after cell inoculation, animals were randomized into treatment groups (n=10/group) and dosed orally (PO) with either vehicle control (5% DMSO+95% PEG 400 (Vehicle 1)+0.5% hydroxypropyl methyl cellulose and 0.2% Tween-80 (Vehicle 2)) or T-A-32 at 75 mg/kg, or trametinib at 0.5 mg/kg once per day (PO) for fourteen (14) days.
as §5, with “Tumor” for “Treatments started on Day 0, tumor”, “twice,” for “twice per week,”, “2000” for “1600”, “14” for “18”

[10] = tested on: A549 human lung cancer xenografts; experiment: A549 KRAS G12S mutant lung cancer xenograft mouse model, tumor growth; type: in vivo, female Nu/Nu mice; details: T-A-32 PO 75 mg/kg QD in combination with trametinib 1.0 mg/kg; Day 25; vs vehicle control; p<0.0001
Protocol: as §6, with “A549” for “HCT-116”, “lung cancer” for “colorectal carcinoma”, “A549” for “HCT116”, “A549 cells harbor” for “HCT116 harbors a”, “G12S” for “G13D”
as §7, with “with 5×10^6 A549” for “with 1×10^6 HCT116”, “human lung cancer” for “human colorectal carcinoma tumor”, “approximately eight (8)” for “approximately ten (10)”, “groups (n=8/group)” for “groups (n=10/group)”, “at 1.0” for “at 0.5”, “for twenty-five (25)” for “for fourteen (14)”
Tumor size and body weight were measured twice per week, and all treatments ended on day 25. Percent TGI was calculated on Day 25 when the control MTV reached the maximum allowable tumor volume. The mean maximum body weight change was determined for each group.

[11] = tested on: LoVo human colorectal adenocarcinoma xenografts; experiment: LoVo KRAS G12D mutant colorectal adenocarcinoma xenograft mouse model, tumor growth; type: in vivo, female Nu/Nu mice; details: T-A-32 PO 75 mg/kg QD in combination with trametinib 1.0 mg/kg; Day 28; vs vehicle control; p<0.0001
Protocol: as §6, with “LoVo” for “HCT-116”, “adenocarcinoma” for “carcinoma”, “LoVo” for “HCT116”, “LoVo cells harbor” for “HCT116 harbors a”, “G12D” for “G13D”
as §7, with “with 5×10^6 LoVo” for “with 1×10^6 HCT116”, “colorectal adenocarcinoma” for “colorectal carcinoma tumor”, “approximately eight (8)” for “approximately ten (10)”, “at 1.0” for “at 0.5”, “for twenty-eight (28)” for “for fourteen (14)”
Tumor size and body weight were measured twice per week, and all treatments ended on day 28. Percent TGI was calculated on Day 28 when the control MTV reached the maximum allowable tumor volume. The mean maximum body weight change was determined for each group.

Structure (SMILES)	apoptosis (caspase-3/7 activation) [1]	apoptosis (caspase-3/7 activation) [2]	apoptosis (caspase-3/7 activation) [3]	apoptosis (caspase-3/7 activation) [4]	apoptosis (caspase-3/7 activation) [5]	apoptosis (caspase-3/7 activation) (A549 cells (KRAS mutant))	apoptosis (caspase-3/7 activation) [6]	apoptosis (caspase-3/7 activation) (LoVo cells (KRAS mutant))	apoptosis (caspase-3/7 activation) [7]	TGI (tumor growth inhibition) ([8]; T-A-32 PO 75 mg/kg QD in combination with osimertinib (2.5 mg/kg)) [%]	TGI (tumor growth inhibition) ([8]; T-A-32 in combination with both trametinib and osimertinib, PO QD) [%]	tumor regression ([8]; triple combination of T-A-32, osimertinib, and trametinib, H1975 xenograft)	TGI (tumor growth inhibition) [9] [%]	TGI (tumor growth inhibition) [10] [%]	TGI (tumor growth inhibition) [11] [%]	TGI (tumor growth inhibition) ([8]; trametinib 1 mg/kg in combination with osimertinib 2.5 mg/kg, PO QD) [%]
CNS(=O)(=O)c1ccc(NCc2ccc(C(F)(F)F)cc2)c(-c2cn(C)cn2)c1 [T-A-32, N-methyl-3-(1-methyl-1H-imidazol-4-yl)-4-((4-(trifluoromethyl)benzyl)amino)benzenesulfonamide]	enhanced apoptosis	enhanced apoptosis	enhanced apoptosis	enhanced apoptosis	enhanced apoptosis	enhanced apoptosis	enhanced apoptosis	enhanced apoptosis	enhanced apoptosis	88	99	complete regressions	78	83	75	
CC(=O)Nc1cccc(-n2c(=O)n(C3CC3)c(=O)c3c(Nc4ccc(I)cc4F)n(C)c(=O)c(C)c32)c1 [trametinib, reference compound]																71
